{"source": "patent US11938222B2", "about": "“Pregabalin sustained release composition and method for preparing the same” (priority 2018, dated 2024)", "origin": "cited, not measured here", "conditions": "gastrointestinal tract, humans", "data": [{"smiles": "CC(C)C[C@H](CN)CC(=O)O", "note": "[pregabalin, (S)-3-aminomethyl-5-methylhexanoic acid]", "values": [{"measurement": "average absorption window", "value": "≤ 6", "unit": "h"}]}]}
